Here are results for 14 molecules from article PMC10575921 (Nature Communications, 2023).

Several values for one entry are separate records, joined by “and”; a condition that tells them apart may be missing. Equal values may be shown once. Read-outs that look alike come from different tables or passages of the source.

For series [1] the following is noted: buffer, pH 7.4.
The target of series [2] is T1, SARS-CoV-2 3CL^pro (Severe acute respiratory syndrome coronavirus 2, UniProt P0DTD1). The series is classed as biochemical.
Series [3] concerns the target T1, SARS-CoV-2 3CL^pro. Put plainly: biochemical. The following applies: for inhibition at 1 µM: concentration 1000.00 nM; for inhibition at 3.125 µM: concentration 3125.00 nM.
In series [4] the test system is human primary hepatocytes. The following applies: primary hepatocyte cytotoxicity.
In a further series the test system is SARS-CoV-2 Delta strain. Kind of series: microbe, parasite or virus in culture. The series is classed as cell-based.
The next series can be described thus: in vitro. Conditions: African green monkey.
The mark [5] stands for this setting: concentration 15.63 nM, read-out: inhibition ratio (%).
Setting [6] is: concentration 31.25 nM, read-out: inhibition ratio (%).
Setting [7] is: concentration 500.00 nM, read-out: inhibition ratio (%).
Setting [8] is: Severe acute respiratory syndrome coronavirus 2, Vero C1008, read-out: EC50 (nM) Mean.
Setting [9] is: 15.63 nM, read-out: inhibition ratio (%).
[10] abbreviates: 31.25 nM, read-out: inhibition ratio (%).
Setting [11] is: 500.00 nM, read-out: inhibition ratio (%).
Setting [12] is: concentration 50000.00 nM, read-out: inhibition ratio (%).
Setting [13] is: concentration 100000.00 nM, read-out: inhibition ratio (%).
Setting [14] is: concentration […], read-out: inhibition ratio (%).

With `CC(=O)/C=C/[C@H](C[C@@H]1CCNC1=O)NC(=O)[C@@H]1[C@@H]2[C@H](CN1C(=O)[C@@H](NC(=O)NC(C)(C)C)C(C)(C)C)C2(C)C` [compound 3], the “GSHt1/2 (half-life of the electrophile warhead to react with glutathione)” value in series [1] was 0.25 h. Besides, the “reversibility of SARS-CoV-2 3CLpro inhibition” value at SARS-CoV-2 3CL^pro [2] is reported as “irreversible”. For the same molecule, the 50% inhibitory concentration (IC50) (commonly the concentration that inhibits the measured activity by half) is 14 nM against SARS-CoV-2 3CL^pro [3] (IC50); 12 nM and 17 nM and 14 nM against SARS-CoV-2 3CL^pro [3] (IC50 (nM)). Also, the inhibition at 0.01563 µM at SARS-CoV-2 3CL^pro [3] (setting [5]) was 52.7%. The inhibition at 0.03125 µM at SARS-CoV-2 3CL^pro [3] (setting [6]) was 85.4%. Moreover, the inhibition at 0.5 µM at SARS-CoV-2 3CL^pro [3] (setting [7]) amounted to 101%. The inhibition at 1 µM at SARS-CoV-2 3CL^pro [3] (read-out: inhibition ratio (%)) was found to be 99.6%.
Regarding `CC/C(=C(\c1ccccc1)c1ccc(OCCN(C)C)cc1)c1ccccc1` [Tamoxifen], the “% of vehicle control” value in series [4] (0.206 μM) is 109.51%; in series [4] (5.56 μM), 81.38% and 83.81% and 90.39%; in series [4] (16.67 μM), 0.08% and 0.0644% and 0.0757%; in series [4] (50 μM), 0.06% and 0.05%; in series [4] (150 μM), 0.0474% and 0.03% and 0.04%.
For the molecule `CC(C)(C)[C@H](NC(=O)C(F)(F)F)C(=O)N1C[C@H]2[C@@H]([C@H]1C(=O)N[C@H](C#N)C[C@@H]1CCNC1=O)C2(C)C` [nirmatrelvir, reference compound], in the series on SARS-CoV-2 Delta strain (read-out: EC50^CP), the 50% effective concentration (EC50) (in general, the concentration at which the effect is half-maximal) was 30 nM.
The molecule `CC(C)(C)NC(=O)N[C@H](C(=O)N1C[C@H]2[C@@H]([C@H]1C(=O)N[C@H](C#N)C[C@@H]1CCNC1=O)C2(C)C)C(C)(C)C` [compound 2] had a CC50 in “in vitro” of over 500000 nM. In addition, the “GSHt1/2 (half-life of the electrophile warhead to react with glutathione)” value in series [1] is 16 h. The EC50 in the series with SARS-CoV-2 Delta strain (Severe acute respiratory syndrome coronavirus 2, Vero C1008) amounted to 7400 nM; in the series with SARS-CoV-2 Delta strain (Severe acute respiratory syndrome coronavirus 2, Vero C1008, read-out: EC50 (nM), single independent experiment) it was 5890 nM; with SARS-CoV-2 Delta strain (read-out: EC50^CP) it was 319 nM. Moreover, the inhibition at 0.03125 µM on SARS-CoV-2 3CL^pro [3] (setting [6]) worked out at 59.6%. In addition, the inhibition at 0.5 µM at SARS-CoV-2 3CL^pro [3] (setting [7]) was found to be 100%.
Molecule `CC(C)(C)[C@H](NS(=O)(=O)C1CC1)C(=O)N1CC2(C[C@H]1C(=O)N[C@H](C#N)C[C@@H]1CCNC1=O)SCCS2` [compound 12] yielded a CC50 in “in vitro” of over 500000 nM. Moreover, the EC50 with SARS-CoV-2 Delta strain (setting [8]) was 10700 nM. The inhibition at 0.01563 µM at SARS-CoV-2 3CL^pro [3] (setting [9]) came out at 72.8%. The inhibition at 0.03125 µM on SARS-CoV-2 3CL^pro [3] (setting [10]) was 86.6%. For the same molecule, at SARS-CoV-2 3CL^pro [3] (setting [11]), the inhibition at 0.5 µM was determined as 97.9%.
In the case of `CC(C)(C)NC(=O)N[C@H](C(=O)N1C[C@H]2[C@@H]([C@H]1C(=O)N[C@H](C=O)C[C@@H]1CCNC1=O)C2(C)C)C(C)(C)C` [compound 1], the “GSHt1/2 (half-life of the electrophile warhead to react with glutathione)” value in series [1] stood at 1.68 h. The inhibition at 0.01563 µM on SARS-CoV-2 3CL^pro [3] (setting [5]) is 72.2%. Also, the inhibition at 0.03125 µM on SARS-CoV-2 3CL^pro [3] (setting [6]) stood at 81.7%. Further, the inhibition at 1 µM at SARS-CoV-2 3CL^pro [3] (read-out: inhibition ratio (%)) stood at 99.4%.
For `CC(C)(C)NC(=O)N[C@H](C(=O)N1C[C@@H]2CCC[C@@H]2[C@H]1C(=O)N[C@H](C#N)C[C@@H]1CCNC1=O)C(C)(C)C` [compound 8], the IC50 against SARS-CoV-2 3CL^pro [3] (IC50) is 50 nM; at SARS-CoV-2 3CL^pro [3] (IC50 (nM)), 49.2 nM and 55.8 nM and 45.8 nM. Besides, the inhibition at 0.03125 µM at SARS-CoV-2 3CL^pro [3] (setting [6]) was 37.9%. Further, the inhibition at 0.5 µM on SARS-CoV-2 3CL^pro [3] (setting [7]) worked out at 93.2%.
Turning to `CC(C)(C)NC(=O)N[C@H](C(=O)N1C[C@H]2[C@@H]([C@H]1C(=O)NC(CC1CCC1)C(=O)C(N)=O)C2(C)C)C(C)(C)C` (stereo partly drawn) [boceprevir, reference compound], the inhibition at 50 µM at SARS-CoV-2 3CL^pro [3] (50000.00 nM, read-out: inhibition ratio (%)) came to 90.9%. In addition, the inhibition at 100 µM on SARS-CoV-2 3CL^pro [3] (100000.00 nM, read-out: inhibition ratio (%)) came to 97.1%. Also, the inhibition at 25 µM at SARS-CoV-2 3CL^pro [3] ([…], read-out: inhibition ratio (%)) turned out to be 82.4%.
Consider `CC(C)(C)NC(=O)N[C@H](C(=O)N1CC[C@@H](Oc2ccccc2)[C@H]1C(=O)N[C@H](C#N)C[C@@H]1CCNC1=O)C(C)(C)C` [compound 4], for which the 50% inhibitory concentration (IC50) at SARS-CoV-2 3CL^pro [3] (IC50) is 6940 nM; against SARS-CoV-2 3CL^pro [3] (IC50 (nM)), 7170 nM and 7720 nM and 5940 nM. Moreover, the inhibition at 3.125 µM on SARS-CoV-2 3CL^pro [3] (read-out: inhibition ratio (%)) is 31.2%. Also, on SARS-CoV-2 3CL^pro [3] (setting [12]), the inhibition at 50 µM is 91.2%. The inhibition at 100 µM at SARS-CoV-2 3CL^pro [3] (setting [13]) is 96.8%. The inhibition at 25 µM at SARS-CoV-2 3CL^pro [3] (setting [14]) was 86%.
As for `CC(C)(C)NC(=O)N[C@H](C(=O)N1C[C@@H](Sc2ccccc2)C[C@H]1C(=O)N[C@H](C#N)C[C@@H]1CCNC1=O)C(C)(C)C` [compound 6], the IC50 against SARS-CoV-2 3CL^pro [3] (IC50) is 7210 nM; against SARS-CoV-2 3CL^pro [3] (IC50 (nM)), 6060 nM and 8400 nM and 7190 nM. The inhibition at 3.125 µM on SARS-CoV-2 3CL^pro [3] (read-out: inhibition ratio (%)) turned out to be 22.4%. In addition, the inhibition at 50 µM on SARS-CoV-2 3CL^pro [3] (setting [12]) worked out at 90.5%. In addition, the inhibition at 100 µM at SARS-CoV-2 3CL^pro [3] (setting [13]) was 97.7%. Further, the inhibition at 25 µM at SARS-CoV-2 3CL^pro [3] (setting [14]) was 81.8%.
As for `CC(C)(C)NC(=O)N[C@H](C(=O)N1CC2(C[C@H]1C(=O)N[C@H](C#N)C[C@@H]1CCNC1=O)SCCS2)C(C)(C)C` [compound 7], the CC50 in “in vitro” is over 500000 nM. For the same molecule, the EC50 is 30000 nM with SARS-CoV-2 Delta strain (setting [8]) and 220 nM with SARS-CoV-2 Delta strain (read-out: EC50^CP). Further, the inhibition at 0.01563 µM on SARS-CoV-2 3CL^pro [3] (setting [5]) is 28.1%. Also, the inhibition at 0.5 µM at SARS-CoV-2 3CL^pro [3] (setting [7]) worked out at 97.8%.
Take `CC(C)(C)[C@H](NC(=O)C1(F)CC1)C(=O)N1CC2(C[C@H]1C(=O)N[C@H](C#N)C[C@@H]1CCNC1=O)SCCS2` [compound 10]: in the series “in vitro”, the CC50 was over 500000 nM. The half-maximal effective concentration (EC50) with SARS-CoV-2 Delta strain (setting [8]) is 1100 nM. Also, at SARS-CoV-2 3CL^pro [3] (setting [11]), the inhibition at 0.5 µM was determined as 94%.
With `CC(C)(C)NC(=O)N[C@H](C(=O)N1C[C@@H](c2ccccc2)C[C@H]1C(=O)N[C@H](C#N)C[C@@H]1CCNC1=O)C(C)(C)C` [compound 5], the IC50 against SARS-CoV-2 3CL^pro [3] (IC50) was 814 nM; against SARS-CoV-2 3CL^pro [3] (IC50 (nM)) it was 883 nM and 880 nM and 679 nM. Also, the inhibition at 5 µM at SARS-CoV-2 3CL^pro [3] (concentration 5000.00 nM, read-out: inhibition ratio (%)) is 91.4%. The inhibition at 10 µM at SARS-CoV-2 3CL^pro [3] (concentration 10000.00 nM, read-out: inhibition ratio (%)) was 94.8%.
In “in vitro”, `CC(C)(C)[C@H](NS(C)(=O)=O)C(=O)N1CC2(C[C@H]1C(=O)N[C@H](C#N)C[C@@H]1CCNC1=O)SCCS2` [compound 11] gave a CC50 of over 500000 nM. In addition, the EC50 in the series with SARS-CoV-2 Delta strain (setting [8]) is 10400 nM. The inhibition at 0.01563 µM at SARS-CoV-2 3CL^pro [3] (setting [9]) came out at 54%. Also, the inhibition at 0.03125 µM on SARS-CoV-2 3CL^pro [3] (setting [10]) turned out to be 73.9%. The inhibition at 0.5 µM at SARS-CoV-2 3CL^pro [3] (setting [11]) turned out to be 94.6%.
